Results reported in patent US20150173369A1, “S[…] CONTROL AND IMPROVED CROP TOLERANCE FROM COMBINATIONS OF 2,4-D-CHOLINE, GLYPHOSATE, AND G[…] 2,4-D-, GLYPHOSATE- AND GLUFOSINATE-TOLERANT SOYBEANS, CORN, COTTON AND OTHER CROP AREAS” (Dow AgroSciences LLC, priority 2013, published 2015).
Where “and” joins values, the source holds several entries; their conditions need not be identical. Identical values can stand only once.

What was measured:
[1] = test system: Ambrosia trifida L. (giant ragweed, AMBTR); assay: Field trials, post-emergence weed control (% visual control); assay type: in vivo; conditions: 542 g ae/ha alone
Description: (§1) Field trials were conducted under agricultural field conditions in multiple states in the United States, including but not limited to Arkansas, Iowa, Illinois, Indiana, Kansas, Minnesota, Mississippi, Missouri, New York, Tennessee and Wisconsin. Trials were established as RCB (randomized complete block) design, with 3-4 replicates per treatment, and plot sizes varying from 5-10 feet (ft) wide by 12-30 ft long. Treatments were applied with small plot backpack sprayers, using pressurized carbon dioxide (CO2) as propellant. Pressure varied from 17-52 pounds per square inch (psi), with spray tips typically of a Flat Fan type applying water diluent at 15 gallons per acre (GPA). Boom sizes varied from 5-11 ft in width. Treatments were applied to soybean, cotton, corn or fallow crop land. Weed sizes varied, but all treatments were applied as post-emergence treatments to weeds from 2 leaf to 2 tiller growth stages varying from 3 to 17 inches in height. The weed spectrum included, but was not limited to, Amaranthus palmeri S. Wats. (Palmer amaranth, AMAPA), Ambrosia trifida L. (giant ragweed, AMBTR), Conyza canadensis (L.) Cronq. (horseweed, ERICA) and Salsola tragus L. (Russian thistle, SASKR).
(§2) Glyphosate-, 2,4-D- and glufosinate-tolerant soybeans, corn or cotton comprising genes for tolerance for each herbicide as described above were used in all trials either as a breeding stack of one to three herbicide-tolerant events or as a molecular stack where all three herbicide tolerance traits were transformed into a single event.
(§3) The 2,4-D-choline salt plus glyphosate premix formulation was a 400 g ae/L SL containing 195 g ae/L 2,4-D-choline salt and 205 g ae/L glyphosate-dimethylammonium (DMA) salt. […] All treatments were mixed in water at appropriate formulated product rates to achieve the desired rates as shown based on a unit area of application (hectare). Treatments were rated at 1 to 28 days after application (DAA) as compared to the untreated control plants. The trial sites had naturally occurring populations of weeds. The treated plots and control plots were rated blind at various intervals after application.
(§4) Colby's equation was used to determine the herbicidal effects expected from the mixtures (Colby, S. R. Calculation of the synergistic and antagonistic response of herbicide combinations. Weeds 1967, 15, 20-22). A t-test (alpha=0.05) between Colby predictions and observed combinations was used to test for significant differences indicating synergy or antagonism using replicate data. The results presented in the Tables were significant according to the described criteria. The following equation was used to calculate the expected activity of mixtures containing three active ingredients, A. B, and C: […]

[2] = test system: Amaranthus palmeri S. Wats. (Palmer amaranth, AMAPA); assay: as above; assay type: in vivo; conditions: 542 g ae/ha alone
Description: as §1, §2, §3, §4

[3] = test system: Conyza canadensis (L.) Cronq. (horseweed, ERICA); assay: as above; assay type: in vivo; conditions: ERICA 14DAA; 542 g ae/ha alone
Description: as §1, §2, §3, §4

[4] = test system: Salsola tragus L. (Russian thistle, SASKR); assay: as above; assay type: in vivo; conditions: 542 g ae/ha alone
Description: as §1, §2, §3, §4

AAD12 Soybean (GLXMA) = assay: Field trials, crop tolerance (% visual crop injury); assay type: in vivo, Glycine max L.
Description: as §1, §2, §3
as §4, with “The results presented in the Tables were significant according to the described criteria.” left out

Compound: CP(=O)(O)CCC(N)C(=O)O (centres unmarked) [Glufosinate-Ammonium, ammonium (3-amino-3-carboxypropyl)(methyl)phosphinate]
- Mean % Weed Control ([1]; AMBTR 8DAA): 56.7%
- Mean % Weed Control ([1]; AMBTR 21DAA): 36.7%
- Mean % Weed Control ([2]; AMAPA 7DAA): 67.5%
- Mean % Weed Control ([2]; AMAPA 8DAA): 32.5%
- Mean % Weed Control ([2]; AMAPA 11DAA): 33.8%
- Mean % Weed Control ([2]; AMAPA 13DAA): 31.3%
- Mean % Weed Control ([2]; AMAPA 14DAA): 10.0%
- Mean % Weed Control ([2]; AMAPA 16DAA): 36.7%
- Mean % Weed Control ([2]; AMAPA 21DAA): 38.8%
- Mean % Weed Control ([2]; AMAPA 23DAA): 21.7%
- Mean % Weed Control [3]: 76.8%
- Mean % Weed Control ([4]; SASKR 21DAA): 13.8%
- Mean % Weed Control ([4]; SASKR 28DAA): 15%
- Mean % visual crop injury (AAD12 Soybean (GLXMA); GLXMA 1DAA, 542 g ae/ha alone): 12.5%
- Mean % visual crop injury (AAD12 Soybean (GLXMA); GLXMA 1DAA, 822 g ae/ha alone): 16.3%
- Mean % visual crop injury (AAD12 Soybean (GLXMA); GLXMA 1DAA, 1084 g ae/ha alone): 20.0%
- Mean % visual crop injury (AAD12 Soybean (GLXMA); GLXMA 2DAA, 822 g ae/ha alone): 9.5% and 12.3% and 11.3% and 8.3% and 7.5% and 7.3% and 13.8%
- Mean % visual crop injury (AAD12 Soybean (GLXMA); GLXMA 2DAA, 1084 g ae/ha alone): 13.0% and 15.5% and 11.3% and 11.8% and 8.5% and 7.8% and 7.5%
- Mean % visual crop injury (AAD12 Soybean (GLXMA); GLXMA 4DAA, 542 g ae/ha alone): 3.8% and 2.8% and 6.3%
- Mean % visual crop injury (AAD12 Soybean (GLXMA); GLXMA 5DAA, 542 g ae/ha alone): 4.0%
- Mean % visual crop injury (AAD12 Soybean (GLXMA); GLXMA 5DAA, 1084 g ae/ha alone): 7.8%
- Mean % visual crop injury (AAD12 Soybean (GLXMA); GLXMA 6DAA, 823 g ae/ha alone): 33.3%
- Mean % visual crop injury (AAD12 Soybean (GLXMA); GLXMA 7DAA, 542 g ae/ha alone): 3.3%
- Mean % visual crop injury (AAD12 Soybean (GLXMA); GLXMA 8DAA, 542 g ae/ha alone): 2.8%
- Mean % visual crop injury (AAD12 Soybean (GLXMA); GLXMA 9DAA, 822 g ae/ha alone): 5.5%
- Mean % visual crop injury (AAD12 Soybean (GLXMA); GLXMA 9DAA, 1084 g ae/ha alone): 6.0%
- Mean % visual crop injury (AAD12 Soybean (GLXMA); GLXMA 10DAA, 1084 g ae/ha alone): 8.5% and 10.0%
- Mean % visual crop injury (AAD12 Soybean (GLXMA); GLXMA 13DAA, 823 g ae/ha alone): 10.7%
- Mean % visual crop injury (AAD12 Soybean (GLXMA); GLXMA 13DAA, 1084 g ae/ha alone): 8.5%
- Mean % visual crop injury (AAD12 Soybean (GLXMA); GLXMA 14DAA, 542 g ae/ha alone): 5.8% and 12.5%
- Mean % visual crop injury (AAD12 Soybean (GLXMA); GLXMA 15DAA, 542 g ae/ha alone): 4.5%
- Mean % visual crop injury (AAD12 Soybean (GLXMA); GLXMA 15DAA, 822 g ae/ha alone): 2.3% and 5.0%
- Mean % visual crop injury (AAD12 Soybean (GLXMA); GLXMA 15DAA, 1084 g ae/ha alone): 5.5% and 8.5% and 2.3%
- Mean % visual crop injury (AAD12 Soybean (GLXMA); GLXMA 16DAA, 542 g ae/ha alone): 3.0%
- Mean % visual crop injury (AAD12 Soybean (GLXMA); GLXMA 16DAA, 822 g ae/ha alone): 4.0%
- Mean % visual crop injury (AAD12 Soybean (GLXMA); GLXMA 16DAA, 1084 g ae/ha alone): 5.0% and 5.5%
- Mean % visual crop injury (AAD12 Soybean (GLXMA); GLXMA 21DAA, 542 g ae/ha alone): 4.0%
- Mean % visual crop injury (AAD12 Soybean (GLXMA); GLXMA 21DAA, 822 g ae/ha alone): 5.0%
- Mean % visual crop injury (AAD12 Soybean (GLXMA); GLXMA 21DAA, 1084 g ae/ha alone): 6.0%
- Mean % visual crop injury (AAD12 Soybean (GLXMA); table title: % Visual Necrosis, GLXMA 2DAA, 1084 g ae/ha alone): 25.0%
- Mean % visual crop injury (AAD12 Soybean (GLXMA); table title: % Visual Necrosis, GLXMA 3DAA, 542 g ae/ha alone): 0.0%
- Mean % visual crop injury (AAD12 Soybean (GLXMA); table title: % Visual Necrosis, GLXMA 3DAA, 822 g ae/ha alone): 0.8%
- Mean % visual crop injury (AAD12 Soybean (GLXMA); table title: % Visual Necrosis, GLXMA 3DAA, 1084 g ae/ha alone): 3.0% and 8.5% and 1.5% and 1.3%
- Mean % visual crop injury (AAD12 Soybean (GLXMA); table title: % Visual Necrosis, GLXMA 5DAA, 542 g ae/ha alone): 2.8%
- Mean % visual crop injury (AAD12 Soybean (GLXMA); table title: % Visual Necrosis, GLXMA 7DAA, 542 g ae/ha alone): 0.5% and 0.3%
- Mean % visual crop injury (AAD12 Soybean (GLXMA); table title: % Visual Necrosis, GLXMA 7DAA, 822 g ae/ha alone): 0.8% and 0.0% and 10.0% and 1.0% and 1.3%
- Mean % visual crop injury (AAD12 Soybean (GLXMA); table title: % Visual Necrosis, GLXMA 7DAA, 1084 g ae/ha alone): 3.3% and 1.3% and 10.0% and 2.0% and 2.3%
- Mean % visual crop injury (AAD12 Soybean (GLXMA); table title: % Visual Necrosis, GLXMA 8DAA, 822 g ae/ha alone): 7.5%
- Mean % visual crop injury (AAD12 Soybean (GLXMA); table title: % Visual Necrosis, GLXMA 8DAA, 1084 g ae/ha alone): 10.0% and 12.5% and 6.5%
- Mean % visual crop injury (AAD12 Soybean (GLXMA); table title: % Visual Necrosis, GLXMA 9DAA, 822 g ae/ha alone): 6.0%
- Mean % visual crop injury (AAD12 Soybean (GLXMA); table title: % Visual Necrosis, GLXMA 10DAA, 1084 g ae/ha alone): 2.3%
- Mean % visual crop injury (AAD12 Soybean (GLXMA); table title: % Visual Necrosis, GLXMA 14DAA, 822 g ae/ha alone): 0.0% and 1.0%
- Mean % visual crop injury (AAD12 Soybean (GLXMA); table title: % Visual Necrosis, GLXMA 14DAA, 1084 g ae/ha alone): 5.0% and 2.0%
- Mean % visual crop injury (AAD12 Soybean (GLXMA); table title: % Visual Necrosis, GLXMA 16DAA, 542 g ae/ha alone): 3.0%
- Mean % visual crop injury (AAD12 Soybean (GLXMA); table title: % Visual Necrosis, GLXMA 16DAA, 822 g ae/ha alone): 5.0%
- Mean % visual crop injury (AAD12 Soybean (GLXMA); table title: % Visual Necrosis, GLXMA 16DAA, 1084 g ae/ha alone): 1.8%
